The text below walks through data of US10201556B2, “Combination for use in treating diseases or conditions associated with melanoma, or treating diseases or conditions associated with activated B-raf pathway” (InteRNA Technologies B.V., priority 2012, dated 2019).

Entries after “also recorded” stand apart in the source; their conditions may differ.

Format in all cases: cell-based, human
For series [1], the system named is RRM2. Briefly: Western blotting of RRM2 protein levels. Here is the method:
(§1) Transfection was performed as described in Example 4 in 6-well format. Proteins were isolated using RIPA buffer (50 mM Tris pH 8.0, 150 mM NaCL, 1% NP-40, 0.5% Sodium deoxycholate, 0.1% SDS), supplemented with Protease Inhibitor Cocktail (Sigma) and Halt™ Phosphatase Inhibitor Cocktail (Pierce/Thermo Scientific). Fifteen μg protein was loaded on a 12% Mini-PROTEAN® TGX™ Precast Gel (Bio-Rad), and proteins were transferred to Immun-Blot PVDF Membrane (Bio-Rad). Membranes were blocked in 5% milk or 5% BSA in TBS-T, and incubated O/N at 4° C. with primary antibodies against α-tubulin (1:5000), BRAF, pERK1/2, CDK4, RRM2 (all 1:1000), BCL-2 (1:500) (Santa Cruz), total-ERK1/2 (1:2000), BIRC5, AURKB (1:1000) (Cell Signaling), ERK1 (1:2000) (GeneTex). After incubation with appropriate secondary antibodies and western blot chemiluminescence substrate ECL (Pierce/Thermo Scientific), membranes were exposed to CL-XPosure Film (Pierce/Thermo Scientific).

Series [2] relates to BCL2. Briefly: Western immunoblotting of BCL2 protein levels. How it is done: As control a scrambled miRNA and a non-targeting siRNA pool were included. Proteins were harvested 72 hrs post transfection using RIPA buffer supplemented with HALT™ Phosphatase Inhibitor (Thermo Scientific) and Protease Inhibitor Cocktail (Sigma). […] The membranes were blocked in 5% milk in TBS-T and incubated O/N at 4° C. with primary antibodies to bRAF, total ERK1/2, phosphoERK1/2, CDK4, BCL2 and tubulin (Santa Cruz). After incubation with secondary goat-anti-mouse antibodies (Santa Cruz), membranes were developed using ECL (Pierce).
Proteins were harvested 72 hrs post transfection using RIPA buffer supplemented with HALT™ Phosphatase Inhibitor (Thermo Scientific) and Protease Inhibitor Cocktail (Sigma). […] The membranes were blocked in 5% milk in TBS-T and incubated O/N at 4° C. with primary antibodies to bRAF, total ERK1/2, phosphoERK1/2, CDK4, BCL2 and tubulin (Santa Cruz). After incubation with secondary goat-anti-mouse antibodies (Santa Cruz), membranes were developed using ECL (Pierce).
As control a scrambled miRNA was included. Proteins were harvested 72 hrs post transfection using RIPA buffer supplemented with HALT™ Phosphatase Inhibitor (Thermo Scientific) and Protease Inhibitor Cocktail (Sigma). Fifteen μg protein was loaded on 10% TGX acrylamide gels (Bio-Rad) and subsequently transferred to PVDF membranes. The membranes were blocked in 5% milk in TBS-T and incubated O/N at 4° C. with primary antibodies to bRAF, total ERK1/2, phosphoERK1/2, BCL2, CDK4 and tubulin (Santa Cruz). After incubation with secondary goat-anti-mouse antibodies (Santa Cruz), membranes were developed using ECL (Pierce).
as §1, with “Proteins” for “Transfection was performed as described in Example 4 in 6-well format. Proteins”, “Fifteen μg protein was loaded on a 12% Mini-PROTEAN® TGX™ Precast Gel (Bio-Rad), and proteins were transferred to Immun-Blot PVDF Membrane (Bio-Rad).” left out
(In general: Immunoblotting shows a protein as a band on a membrane.)

The subject of series [3] is AURKB. Briefly: Western blotting of AURKB protein levels. Here is the method:
as §1

Setting [4] is: vemurafenib-resistant A2058, M249-AR4 and M376, 1 μM, 24 hrs (FIG. 14b).
The mark [5] stands for this setting: vemurafenib-sensitive A375 and M249, 1 μM, 24 hrs (FIG. 14b).
The mark [6] stands for this setting: A375Hu cells, 72 hrs, Western blot.
Setting [7] is: A375 cells, increasing concentrations of mimic (FIG. 12c).
[8] abbreviates: A2058, M249, M249-AR4 and M376, increasing concentrations of mimic (FIG. 14a).

As for `CCCS(=O)(=O)Nc1ccc(F)c(C(=O)c2c[nH]c3ncc(-c4ccc(Cl)cc4)cc23)c1F` [Vemurafenib, N-(3-{[5-(4-chlorophenyl)-1H-pyrrolo[2,3-b]pyridin-3-yl]carbonyl}-2,4-difluorophenyl)propane-1-sulfonamide], the RRM2 protein levels entry is on record as “protein levels similar to control-treated cells” in series [1] (setting [4]) and “downregulated” in series [1] (setting [5]). The BCL2 protein levels entry in series [2] (setting [6]) was “but not CDK4 or BCL2”; in series [2] (A375Hu cells, 72 hrs, Western blot, listed as PLX-4032), “not in reduction of CDK4 and BCL2 protein levels”. Besides, the AURKB protein levels entry is on record as “protein levels similar to control-treated cells” in series [3] (setting [4]) and “downregulated” in series [3] (setting [5]).
With “hsa-miR-3157-5p: mature miRNA mimic, SEQ ID NO 6 UUCAGCCAGGCUAGUGCAGUCU (listed as RNA, chemistry not given here)”, the values for the RRM2 protein levels entry in series [1] (setting [7]) and in series [1] (setting [8]) were “most pronounced” and “strongly downregulated”, respectively. The BCL2 protein levels result in series [2] (setting [6]) is reported as “significant reduction in BCL2 protein levels; also recorded: down-regulated”; in series [2] (setting [7]), “strong reduction”; in series [2] (setting [8]), “no effect”; in series [2] (A2058 cells (vemurafenib resistant), 72 hrs post transfection, Western blot), “reduction; also recorded: down-regulated”. Moreover, the AURKB protein levels result in series [3] (setting [7]) is “most pronounced”; in series [3] (setting [8]), “strongly downregulated”.
